# Where a SMILES comes first, the peptide text is derived from it. Where no end group is shown, it is not given here. [ ]: non-standard residue; d: D form. Aib = CC(C)(N)C(=O)O
# Legend:
# [1] = molecular target: T1, LCAT (purified from human plasma) (Homo sapiens, UniProt P04180); assay: LCAT activation assay; format: biochemical; set-up: ACTIVITY (%) LCAT: concentration or dose not given beside the values; conditions: for ACTIVITY (%) LCAT: LCAT activation as compared with native human ApoA-I; for LCAT activation: as compared with native ApoA-I (100%)
# T1 construct: from tissue; host or cells: human plasma
# T1 sequence (P04180 25-440): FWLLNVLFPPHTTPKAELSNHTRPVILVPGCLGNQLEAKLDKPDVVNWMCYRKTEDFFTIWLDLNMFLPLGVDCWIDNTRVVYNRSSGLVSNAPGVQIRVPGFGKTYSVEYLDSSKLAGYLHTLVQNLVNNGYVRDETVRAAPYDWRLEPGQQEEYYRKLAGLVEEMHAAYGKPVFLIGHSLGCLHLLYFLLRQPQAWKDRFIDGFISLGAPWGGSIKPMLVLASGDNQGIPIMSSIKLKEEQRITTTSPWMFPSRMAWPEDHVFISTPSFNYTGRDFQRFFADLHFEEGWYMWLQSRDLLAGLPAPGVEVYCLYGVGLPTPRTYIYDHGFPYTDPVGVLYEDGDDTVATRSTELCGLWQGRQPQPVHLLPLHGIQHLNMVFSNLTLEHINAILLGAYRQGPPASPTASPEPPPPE
# Procedure: The peptides synthesized as described in Section 6, supra, were analyzed in vitro for their ability to activate LCAT. In the LCAT assay, substrate vesicles (small unilamellar vesicles or “SUVs”) composed of egg phophatidylcholine (EPC) or 1-Palmitoyl-2-oleyl-phosphatidyl-choline (POPC) and radiolabelled cholesterol are preincubated with equivalent masses either of peptide or ApoA-I (isolated from human plasma). The reaction is initiated by addition of LCAT (purified from human plasma). Native ApoA-I, which was used as positive control, represents 100% activation activity. “Specific activity” (i.e., units of activity (LCAT activation)/unit of mass) of the peptides can be calculated as the concentration of peptide that achieves maximum LCAT activation. For example, a series of concentrations of the peptide (e.a., a limiting dilution) can be assayed to determine the “specific activity” for the peptide—the concentration which achieves maximal LCAT activation (i.e., percentage conversion of cholesterol to cholesterol ester) at a specific timepoint in the assay (e.g., 1 hr.). When plotting percentage conversion of cholesterol at, e.g., 1 hr., against the concentration of peptide used, the “specific activity” can be identified as the concentration of peptide that achieves a plateau on the plotted curve.
# The vesicles used in the LCAT assay are SUVs composed of egg phosphatidylcholine (EPC) or 1-palmitoyl-2-oleyl-phosphatidylcholine (POPC) and cholesterol with a molar ratio of 20:1. To prepare a vesicle stock solution sufficient for 40 assays, 7.7 mg EPC (or 7.6 mg POPC; 10 μmol), 78 μg (0.2 μmol) 4-^14C-cholesterol, 116 μg cholesterol (0.3 μmol) are dissolved in 5 ml xylene and lyophilized. Thereafter 4 ml of assay buffer is added to the dry powder and sonicated under nitrogen atmosphere at 4° C. Sonication conditions: Branson 250 sonicator, 10 mm tip, 6×5 minutes; Assay buffer: 10 mM Tris, 0.14 M NaCl, 1 mM EDTA, pH 7.4). The sonicated mixture is centrifuged 6 times for 5 minutes each time at 14,000 rpm (16,000×g) to remove titanium particles. The resulting clear solution is used for the enzyme assay.
# For the LCAT purification, dextran sulfate/Mg^2+ treatment of human plasma is used to obtain lipoprotein deficient serum (LPDS), which is sequentially chromatographed on Phenylsepharose, Affigelblue, ConcanavalinA sepharose and anti-ApoA-I affinity chromatography, as summarized for a representative purification in TABLE IX, below: […]
# [2] = Circular dichroism: degree of helicity (free, SUVs, micelles, TFE); conditions: for He (%) free: percent helicity of free, unbound peptide; for He (%) SUVs: percent helicity of peptide-SUV complexes; for He (%) TFE: percent helicity of peptide-TFE solution; for He (%) mics: percent helicity of peptide-micelle complexes
# How it was run: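 Far-UV CD (190–260 nm) at 37 °C on 5 μM peptide in 5 mM phosphate pH 7.4, either free, with EPC:Chol 20:1 SUVs (Ri 30 or 50), with lysophosphatidylcholine micelles (Ri 100), or in 90% TFE. Helicity derived from mean residue ellipticity at 222 nm or CONTIN fitting to reference spectra.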
# [3] = system: lipidic vesicles (EPC/Chol 5%); assay: Fluorescence spectroscopy lipid binding; conditions: for I/Io / λmax: peptide 2 μM
# Procedure: The lipid binding properties of the peptides synthesized in Section 6, supra, were tested by fluorescence measurements with labeled peptides, in the present case Tryptophane (Trp or W) or Naphtylalanine (Nal). The fluorescence spectra were recorded on a Fluoromax from Spex (Jobin-Yvon) equipped with a Xenon lamp of 150 W, two monochromators (excitation and emission), a photomultiplier R-928 for detection sensitive in the red up to 850 nm and a thermoelectric magnetic stirred cell holder. Quartz Suprasil cuvettes were used for measurements in the micromolar concentration range. A device of variable slits (from 0.4 to 5 nm) allows modulation of the incident and emitted intensities according to the concentration of peptide used. The reported values are in general the average of between 2 to 4 spectra. The peptide concentration is determined by absorption spectrometry on a Philips PU 8800 usng the absorption band of the Trp (ε280 nm=5,550 M^−1cm^−1 in Tris buffer) or the Nal (ε224 nm=92,770 M^−1cm^−1 in methanol).
# Fluorescence spectra of the peptides were recorded between 290 nm and 450 nm in Tris-HCl buffer (20 mM, pH=7.5), in the presence and absence of lipidic vesicles. The small unilamellar vesicles were formed after rehydration in buffer of the lyophilized phospholipids, dispersion and tip sonification under a N2 stream. The lipids used were either Egg PC/Chol. (20:1) or POPC/Chol. (20:1). The spectra were recorded at a peptide concentration of 2 μM and at a temperature of 37° C. The fluorescence reference standard in the case of Trp was N-acetyltryptophanylamide (NATA).
# Lipid binding studies were done through progressive lipidic vesicle addition to the peptide in solution at 2 μM (slits:5 nm in excitation and 1.5 nm in emission). Dilution effects were taken into account for the fluorescence intensity determination. The lipid concentrations were varied from 10 to 600 μM and the molar ratio of lipid to peptide (Ri) was varied from 5 to 300. The wavelength of excitation was set at 280 nm for both Trp and Nal.
# The data were directly recorded and treated by an IBM-PC linked to the spectrofluorimeter through the DM3000F software from Spex. The spectra were corrected by substraction of the solvent contribution and by application of a coefficient given by the constructor taking into account the variation of the photomultiplier response versus the wavelength.
# The fluorescence spectra of the peptides were characterized by the wavelength at their maximum of fluorescence emission and by their quantum yield compared to NATA in the case of peptides labeled with a tryptophane. The process of binding to lipids was analyzed by calculating the shift of the wavelength at the maximum of fluorescence emission, (λmax), and the variation of the relative. fluorescence intensity of emission versus the lipid concentration. The relative fluorescence intensity is defined as the following ratio: (I−I0)λmax/I0λmax. I and I0 are both measured at the (λmax) corresponding to the initial free state of the peptide, i.e., without lipids. I is the intensity at a defined lipid to peptide ratio and I0 is the same parameter measured in absence of lipids. The absence of these variations is relevant of the absence of interactions of the peptides with the lipids.
Molecule,ACTIVITY (%) LCAT [1] [%],He (%) free [2] [%],He (%) SUVs [2] [%],He (%) TFE [2] [%],He (%) mics [2] [%],other results
pVLDLFRELLNELLEALKQKLK [peptide 21],57,,,,,
PVLDLFRELLNELZEALKQKLK [peptide 27],44,72,82,81,92,
"PVLDLFRELLNLXLEALKEKLK (PVLDLFRELLNL[Aib]LEALKEKLK) [peptide 102, X is Aib; Gln-19 replaced by Glu-19]",,,,,,LCAT activation (in words) [1]: did not activate LCAT
pVLDLFRELLNELLEALKQKLKK [peptide 5],90,,,,,
"PVLDLFRELWNELLEALKQKLK [peptide 15, peptide 4 containing a Trp residue at position 10]",,55,64,68,,"lipid binding (in words) [3]: very high affinity; lipid to peptide molar ratio at maximum burying of the Tryptophane residue [3]: lower than 5; maximum of the Trp emission wavelength when bound to lipidic vesicles ([3]; EPC/Chol 5% vesicles, shifted from 332 nm): 323 nm; I/Io ([3]; Lipid:Peptide Molar Ratio (Ri) 0): 0; λmax ([3]; Ri 0 (buffer, no lipid)): 332 nm; I/Io ([3]; Ri 5): 10.8; λmax ([3]; Ri 5): 323 nm; I/Io ([3]; Ri 10): 13.2; λmax ([3]; Ri 10): 323.5 nm; I/Io ([3]; Ri 30): 17.5; λmax ([3]; Ri 30): 323 nm; I/Io ([3]; Ri 100): 26.4; λmax ([3]; Ri 100): 323 nm; I/Io ([3]; Ri 200): 43.5; λmax ([3]; Ri 200): 323 nm"
PVLDLFRELLNELLEALOQOLO [peptide 14],61,70,80,,96,
"EWLEAFYKKVLEKLKELF [peptide 18AM4, reference compound]",,18,47,,44,LCAT activation [1]: less than 4%
pVLDLFRELLNEGLEALKQKLK [peptide 19],58,,,,,
"CC(=O)N1CCC[C@H]1C(=O)N[C@H](C(=O)N[C@@H](CC(C)C)C(=O)N[C@@H](CC(=O)O)C(=O)N[C@@H](CCC(=O)O)C(=O)N[C@@H](Cc1ccccc1)C(=O)N[C@@H](CCCN=C(N)N)C(=O)N[C@@H](CCC(=O)O)C(=O)N[C@@H](CCCCN)C(=O)N[C@@H](CC(C)C)C(=O)N[C@@H](CC(N)=O)C(=O)N[C@@H](CCC(=O)O)C(=O)N[C@@H](CCC(=O)O)C(=O)N[C@@H](CC(C)C)C(=O)N[C@@H](CCC(=O)O)C(=O)N[C@@H](C)C(=O)N[C@@H](CC(C)C)C(=O)N[C@@H](CCCCN)C(=O)N[C@@H](CCC(N)=O)C(=O)N[C@@H](CCCCN)C(=O)N[C@@H](CC(C)C)C(=O)N[C@@H](CCCCN)C(N)=O)C(C)C [Segrest's consensus 22-mer, reference compound] (Ac-PVLDEFREKLNEELEALKQKLK-NH2)",10,,,,,LCAT activation [1]: 10%
PVLDLFRELLNELLEAZKQKLK [peptide 10],79,60,70,71,87,

# — US6602854B1, “Branched multimeric Apo A-I agonist compounds” (priority 1997, dated 2003)
